Our source for the IC50 values is article PMC5520492, “Inhibition of DNA2 nuclease as a therapeutic strategy targeting replication stress in cancer cells” (Oncogenesis, 2017).

In one assay the test system is U2OS cells. Put plainly: Cell-based viability/proliferation screen, DAPI staining and automated microscopy. The conditions noted are these: Homo sapiens, 10 pM to 10 μM, DAPI staining, read-out: IC50 from Screening Cell Based. Also noted: species or system human. The protocol: The biological effectiveness of the 39 compounds selected by re-screening was determined by measuring their half maximal inhibitory concentration (IC50) biochemically and in a cell-based system using the 384-well platform (Supplementary Table S2). […] We conducted the viability assay in duplicate on three separate occasions using a concentration range of 10 pM to 10 μM for each compound. Cell proliferation was determined using 4,6-diamidino-2-phenylindole staining and microscopy.
In addition, a second dark quencher ZEN (N,N-diethyl-4-(4-nitronaphthalen-1-ylazo)-phenylamine, absorption max.=532 nm) is placed between 9th and 10th base (Figure 2a). Initial screen, it was performed with yDna2.[22] Then, the top candidate compounds were tested on hDNA2. Identical reaction conditions were used for assaying the nuclease activity of yDna2 and hDNA2. […] The reaction buffer was 20 mM HEPES/NaOH, pH 7.5, 60 mM KCl, 1 mM DTT, 100 μg/ml bovine serum albumin and 0.05% Triton X-100. The nuclease assay was initiated by adding MgCl2 (3 mM final concentration). T5 nuclease was assayed in the buffer (50 mM potassium acetate, pH 7.9, 20 mM Tris-acetate, 10 mM magnesium acetate and 1 mM DTT) provided by the vendor (NEB, Ipswich, MA, USA). The concentration of the fluorogenic substrate was 0.1 μM. The optimal amount of yDna2, hDNA2 and T5 nuclease was determined by utilizing the Kaleidagraph software (Reading, PA, USA) to fit the data according to Michaelis Menton Kinetics (V=V0+Vmax*x/(Km+x)). […] All the compounds were dissolved in DMSO and DMSO alone was used as control; the final concentration of DMSO was at 3.33% for protein-based assay and 0.1% for cell-based assay. The Z’ value was calculated as previously described.[50] Cell proliferation was determined using 4,6-diamidino-2-phenylindole staining followed by high-throughput microscopy in a 384-well plate setup. In brief, cells were fixed with formaldehyde, washed and stained with 4,6-diamidino-2-phenylindole and the number of nuclei in each well counted by automated microscopy. The data were analyzed as described.[51]

The next assay deals with T1, yDna2 (Saccharomyces cerevisiae, UniProt P38859).
T1 construct: made in house
T1 sequence (P38859 whole entry): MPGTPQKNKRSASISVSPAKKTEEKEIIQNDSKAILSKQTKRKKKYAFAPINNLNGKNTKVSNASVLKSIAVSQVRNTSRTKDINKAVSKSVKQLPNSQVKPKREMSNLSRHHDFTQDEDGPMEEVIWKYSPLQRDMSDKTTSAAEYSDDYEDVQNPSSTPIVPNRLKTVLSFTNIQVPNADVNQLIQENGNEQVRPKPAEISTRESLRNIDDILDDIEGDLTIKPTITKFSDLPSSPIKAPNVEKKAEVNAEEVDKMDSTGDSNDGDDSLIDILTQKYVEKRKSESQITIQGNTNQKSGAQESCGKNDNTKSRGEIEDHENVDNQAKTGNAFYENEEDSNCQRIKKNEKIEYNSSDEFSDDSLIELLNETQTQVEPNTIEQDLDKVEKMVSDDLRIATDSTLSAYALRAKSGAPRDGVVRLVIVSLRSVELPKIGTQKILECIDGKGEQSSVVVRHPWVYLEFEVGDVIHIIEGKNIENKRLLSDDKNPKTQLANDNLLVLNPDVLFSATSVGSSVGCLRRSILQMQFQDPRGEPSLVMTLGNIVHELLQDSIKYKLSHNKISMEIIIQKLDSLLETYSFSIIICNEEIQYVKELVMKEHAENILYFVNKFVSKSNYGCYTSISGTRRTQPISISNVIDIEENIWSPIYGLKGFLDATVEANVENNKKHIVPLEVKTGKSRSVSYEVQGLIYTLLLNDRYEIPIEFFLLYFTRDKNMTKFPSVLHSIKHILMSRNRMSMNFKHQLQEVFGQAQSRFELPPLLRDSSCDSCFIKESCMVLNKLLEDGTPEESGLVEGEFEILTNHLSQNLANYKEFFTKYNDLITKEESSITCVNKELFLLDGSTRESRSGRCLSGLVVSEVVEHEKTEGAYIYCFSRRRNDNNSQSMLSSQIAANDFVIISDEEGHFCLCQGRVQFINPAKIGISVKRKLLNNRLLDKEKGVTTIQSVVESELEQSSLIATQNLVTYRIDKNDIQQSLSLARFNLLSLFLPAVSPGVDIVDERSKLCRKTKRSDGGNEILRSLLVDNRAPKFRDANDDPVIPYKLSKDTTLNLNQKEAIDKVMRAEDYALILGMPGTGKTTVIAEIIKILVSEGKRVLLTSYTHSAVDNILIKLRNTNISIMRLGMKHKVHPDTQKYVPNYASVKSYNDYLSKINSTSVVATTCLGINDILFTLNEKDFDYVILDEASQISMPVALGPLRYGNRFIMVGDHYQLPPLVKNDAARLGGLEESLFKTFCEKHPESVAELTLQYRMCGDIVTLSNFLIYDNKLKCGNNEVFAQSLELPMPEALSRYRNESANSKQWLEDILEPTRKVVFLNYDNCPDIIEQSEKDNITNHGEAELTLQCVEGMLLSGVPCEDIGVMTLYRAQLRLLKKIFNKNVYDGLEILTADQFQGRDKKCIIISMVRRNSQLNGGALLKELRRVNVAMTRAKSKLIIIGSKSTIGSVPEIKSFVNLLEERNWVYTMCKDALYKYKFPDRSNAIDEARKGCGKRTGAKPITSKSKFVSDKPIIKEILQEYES
As to the kind of experiment: High-throughput fluorescence nuclease assay with yDna2 (triply labeled (dT)30 ssDNA). The format is biochemical, yeast. The conditions noted are these: compounds that inhibit yDna2 but not T5 nuclease; 384-well platform; read-out: IC50 from Screening In Vitro. The protocol: The screen entailed the use of oligonucleotide (dT)30 having a reporter fluorescent moiety, 6-FAM on the 5′ end, and the dark quenching group, Iowa Black FQ, on the 3′ end. In addition, a second dark quencher ZEN was placed between the 9th and 10th base (Figure 2a). The fluorescence emitted by 6-FAM is quenched by FRET, but it increases when DNA is degraded by Dna2. […] The inhibitory activity of the compounds was determined as a reduction in fluorescent signal compared with the dimethylsulfoxide (DMSO) only control. […] We screened ~50 000 chemical compounds from six different libraries (Supplementary Table S1) to identify chemical inhibitors of the Dna2 nuclease activity. […] The DNA2 nuclease domain is well conserved among eukaryotes, and therefore we reasoned that inhibitors of yDna2 will likely also work with the human counterpart.
Initial screen, it was performed with yDna2.[22] Then, the top candidate compounds were tested on hDNA2. Identical reaction conditions were used for assaying the nuclease activity of yDna2 and hDNA2. […] The reaction buffer was 20 mM HEPES/NaOH, pH 7.5, 60 mM KCl, 1 mM DTT, 100 μg/ml bovine serum albumin and 0.05% Triton X-100. The nuclease assay was initiated by adding MgCl2 (3 mM final concentration). T5 nuclease was assayed in the buffer (50 mM potassium acetate, pH 7.9, 20 mM Tris-acetate, 10 mM magnesium acetate and 1 mM DTT) provided by the vendor (NEB, Ipswich, MA, USA). The concentration of the fluorogenic substrate was 0.1 μM. The optimal amount of yDna2, hDNA2 and T5 nuclease was determined by utilizing the Kaleidagraph software (Reading, PA, USA) to fit the data according to Michaelis Menton Kinetics (V=V0+Vmax*x/(Km+x)). […] The Z’ value was calculated as previously described.[50] Cell proliferation was determined using 4,6-diamidino-2-phenylindole staining followed by high-throughput microscopy in a 384-well plate setup. In brief, cells were fixed with formaldehyde, washed and stained with 4,6-diamidino-2-phenylindole and the number of nuclei in each well counted by automated microscopy. The data were analyzed as described.[51]

The term IC50 denotes the concentration needed to halve the response being measured. On to `CN(C)C/C=C/C(=O)Nc1cc2c(Nc3ccc(F)c(Cl)c3)ncnc2cc1O[C@H]1CCOC1` [BIBW2992, reference compound], for which the values for the IC50 in the assay with U2OS cells and on yDna2 were 1.2 µM and 7.2 µM, respectively.
